Laboratory results taken from US9028855B2, “Plant additives and uses thereof to modulate the synthesis of membrane glycerolipids in planta” (Commissariat a l'Energie Atomique et aux Energies …, priority 2009, dated 2015).

Legend:
Acid phosphatase = Acid phosphatase activity in root extract (spectrophotometric); type: in vivo; settings: 10 days old plants, high phosphate medium + 5 μM MC2, FIG. 4
Method: FIG. 4: Acid phosphatase activity was assayed spectrophotometrically in root extract from 10 days old plants grown in high phosphate medium, in low phosphate medium or in high phosphate medium supplied with 5 μM of MC2. Values represent the mean of 3 experiments±SD.
In response to phosphate deficiency, plants are able to secrete phosphatase in soil in order to remobilize phosphate from soil.

iron transporter IRT1 = test: IRT1::GUS, follow-up of the expression of the gene encoding the iron transporter IRT1 (GUS staining); type: in vivo, A. thaliana; settings: compound added to the cultivation medium; MC2 5 μM, FIG. 13
Method: pIRT1:GUS cells were obtained as described by Vert et al. (Vert et al., 2002) and carry a irt1 promoter-GUS fusion. […] Plants were examined for GUS activity by dipping the samples in a GUS staining solution (50 mM sodium phosphate buffer pH 7.0; 0.01% Triton X-100, 1 mM K3Fe(CN)6, 1 mM K4Fe(CN)6, 1 mg/ml 5-dromo-4-chloro-3-indolyl (3-D-GLUCURONIDE (X-Gluc A) and incubated at 37° C. over-night. After staining, the plants were fixed 2 hours in 50 mM sodium phosphate buffer pH 7.0; 1% glutaraldehyde; 4% formaldehyde.

A. thaliana = test: Root growth (primary root) of plants on high phosphate medium supplied with compound; type: in vivo; settings: expressed as a percentage having regard to a control; +P control 100, −P 20
From the text: In response to phosphate starvation, the primary root growth is inhibited (Svistoonoff et al., 2007).

Medicago truncatula = test: Root growth of Medicago truncatula in phosphate deficient medium; type: in vivo; settings: phosphate 10 μM, MC2 5 μM, 10 days, FIG. 14
Method: Medicago truncatula seeds were surface-sterilized as follow: soaking in concentrated sulphuric acid for 10 min, rinsing three times with sterile distilled water, soaking in 10% bleach/0.1% Tween 20 solution for 10 min with gentle agitation and finally by rinsing seeds three times with sterile distilled water. Seeds were germinated 48 h in dark. […] In the phosphate (Pi) deficient medium, NaCl (0.5 mM) was used to replace the equivalent amount of sodium provided by NaH2PO4.). Plants were maintained 10 days under a 14 h light/10 h 150 μm^−2s^−1 dark regime with a temperature of 22/18° C. for light/dark phases in a phytotron.

wild type seedlings = test: Anthocyanins content (spectrophotometric); type: in vivo, A. thaliana; parameters: key to Antho: anthocyanin content as A530 - 2.2*A652
Method: Anthocyanins were extracted with propanol:HCl:H2O (81:1:18) for 5 min at room temperature and 3 min at 100° C. Samples are centrifuged for 10 min at 4° C. Supernatants were collected and absorption measured at 530 nm and […]. Anthocyanin content was calculated as A530-2.2A652 (Lange et al., 1971).

## Cc1cccc(NC=C2C(=O)CC(C)(C)CC2=O)n1 [MC2]
Acid phosphatase
  phosphatase activity: inducing phosphatase activity
Iron transporter IRT1
  IRT1 expression (in words): inhibits IRT1 expression
A. thaliana
  Root Growth: 51 % of control
Medicago truncatula
  growth of roots in a Pi deficient medium: improved
Wild type seedlings; MC2 5 μM, FIG. 8
  anthocyanins accumulation (in words): strong accumulation
Wild type seedlings; accumulation of anthocyanes, +P control 46, −P 1008
  Antho: 454
